Measured values as given in patent US8614227B2, “Salt and solvates of a tetrahydroisoquinoline derivative” (Spinifex Pharmaceuticals Pty Ltd, priority 2010, dated 2013).
Like-named read-outs stand apart in the source and are kept apart here.

Legend:
[1] = Storage of amine salts at elevated humidity (deliquescence); assay type: physicochemical
Description: The tromethamine salt deliquesced at 25° C./94% RH. As a result, neither of these amine salts were suitable for pharmaceutical development.

[2] = Gravimetric vapour sorption (GVS); assay type: physicochemical
Description: Sorption isotherms were obtained using a Hiden IGASorp moisture sorption analyzer, controlled by CFRSorp software. The sample temperature was maintained at 25° C. by a Huber re-circulating water bath. The humidity was controlled by mixing streams of dry and wet nitrogen, with a total flow rate of 250 mL·min^−1. The relative humidity was measured by a calibrated Vaisala RH probe (dynamic range of 0-95% RH), located near the sample. The weight change, (mass relaxation) of the sample as a function of % RH was constantly monitored by the microbalance (accuracy ±0.001 mg).
Typically 10-20 mg of sample was placed in a tared mesh stainless steel basket under ambient conditions. The sample was loaded and unloaded at 40% RH and 25° C. (typical room conditions).
A moisture sorption isotherm was performed as outlined below (2 scans giving 1 complete cycle). The standard isotherm was performed at 25° C. at 10% RH intervals over a 0-90% RH range.
The software uses a least squares minimization procedure together with a model of the mass relaxation, to predict an asymptotic value. The measured mass relaxation value must be within 5% of that predicted by the software, before the next RH value is selected. The minimum equilibration time was set to 1 hour and the maximum to 4 hours.
The sample was recovered after completion of the isotherm and re-analyzed by XRPD.

in vivo = settings: male, beagle, dog, po, 10 mg/kg
Description: (§1) The study was designed to compare the PK profiles of the following four forms of Compound 1 administered as single oral capsules in fasted state. […] There was a washout period of 4 days between dosing. The blood samples were collected from each animal at predetermined times on the study Days 1, 4, 8 and 11. The plasma was analyzed for Compound 1 by a validated HPLC-MS/MS assay.
(§2) Descriptive PK parameters were determined by standard model independent methods (Gibaldi and Perrier, 1982) based on the individual plasma concentration-time data. Plasma concentrations were rounded to 3 significant figures. Plasma samples with concentrations below the quantifiable assay limit (BQL<2.00 ng/mL) were assigned values of zero for mean calculations. For PK calculations, BQL was set to zero from the pre-dose time up to the time of the first quantifiable concentration and thereafter was set as missing. Nominal time points were used for all calculations. • Cmax is the observed maximum plasma concentration after dosing. • Tmax is the time to reach Cmax. • T1/2 is apparent half-life calculated by ln(2)/λ where λ is the rate constant fix the log-linear portion of the terminal phase. A minimum of three values in the post-distribution phase of the plasma concentration-time curve is required for calculation of X. • AUC(0-T) is the area under the plasma concentration-time curve from time zero to the time of the last measurable plasma concentration determined using the linear trapezoidal rule. • AUC(0-inf) is the area under the plasma concentration-time curve from time zero to infinity. It is calculated by summing AUC(0-T) and the extrapolated area from the T to infinity.
(§3) PK analyses were performed by noncompartmental analysis using model 200 in WinNonlin Professional 6.1 (Pharsight Corp., Mountain View, Calif.).

[3] = dog, in vivo, po, 10 mg/kg
Description: as §1, §2, §3

pKa of Compound 1 = assay type: physicochemical

In the case of `COc1ccc2c(c1OCc1ccccc1)C[C@@H](C(=O)O)N(C(=O)C(c1ccccc1)c1ccccc1)C2.NC(CO)(CO)CO` [tromethamine salt], the “behaviour on storage at 25° C./94% RH” value [1] is reported as “deliquesced”.
For `COc1ccc2c(c1OCc1ccccc1)C[C@@H](C(=O)[O-])N(C(=O)C(c1ccccc1)c1ccccc1)C2.[Na+]` [material from acetonitrile (MeCN)], the “GVS weight gained by 40% RH” value ([2]; from 0% RH to 40% RH) was 6%, the “GVS weight change when taken up to 90% RH” value ([2]; from 40% RH to 90% RH, 25° C.) was “about 17%” and the “GVS total weight drop” value ([2]; from 90% RH to 0% RH) was 19%. The “GVS weight at 0% RH” value ([2]; taken down to 0% RH, 25° C.) was −2%.
In the case of `COc1ccc2c(c1OCc1ccccc1)C[C@@H](C(=O)O)N(C(=O)C(c1ccccc1)c1ccccc1)C2` [Compound 1, (S)-2-(diphenylacetyl)-1,2,3,4-tetrahydro-6-methoxy-5-(phenylmethoxy)-3-isoquinoline carboxylic acid], the AUC(0-inf) (in vivo; Mean AUC(0-inf)) is reported as 680 ± 412 ng·h/mL, the half-life (in vivo; Mean harmonic T1/2) is reported as 2.11 ± 0.115 h and the half-life (in vivo; T1/2) is reported as 2.18 h. It also gave a Tmax (in vivo; Tmax) of 1 h, a Cmax (in vivo; mean Cmax) of 294 ± 238 ng/mL and a Tmax (in vivo; median Tmax) of 2 h. The “Plasma concentration of Compound 1, 0.25 h” value [3] was “BQL”, the “Plasma concentration of Compound 1, 0.5 h” value [3] was “BQL” and the “Plasma concentration of Compound 1, 0.75 h” value [3] was “BQL”. For the same compound, the “Plasma concentration of Compound 1, 12 h” value [3] was “BQL”, the “Plasma concentration of Compound 1, 24 h” value [3] was “BQL” and the “Plasma concentration of Compound 1, Predose” value [3] was “BQL”. For the same compound, the “Plasma concentration of Compound 1, Predose” value ([3]; male, beagle) was 0.00 ng/mL, the “Plasma concentration of Compound 1, 24 h” value ([3]; male, beagle, 24 h) was 0.00 ng/mL and the pKa (pKa of Compound 1) was roughly 3.86.
